In patent publication US20250145589A1, “PYRIDINE DERIVATIVE AND USE THEREOF” (SICHUAN HUIYU PHARMACEUTICAL CO., LTD., priority 2021, published 2025):

What was measured:
Type in all cases: cell-based
[1] = test system: MIA PaCa-2-AMGR drug-resistant cell line; assay: MIA PaCa-2-AMGR drug-resistant cell proliferation inhibitory activity test; details: 72 h, MIA PaCa-2-AMGR drug-resistant cells, 3 days incubation, CellTiter-Glo
In short: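 MIA PaCa-2 line made resistant by stepwise AMG510 exposure up to 1 μM. Cells seeded at 4×10^3/well overnight, then treated with 8 concentrations (5-fold dilutions) for 3 days at 37° C, 5% CO2 in DMEM with 10% FBS + 2.5% horse serum. Viability by CellTiter-Glo luminescence; IC50 versus no-inhibitor control.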

[2] = test system: NCI-H358-AMGR drug-resistant cell line; assay: NCI-H358-AMGR drug-resistant cell proliferation inhibitory activity test; details: 72 h; NCI-H358-AMGR drug-resistant cells, 3 days incubation, CellTiter-Glo
In short: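 Luminescent CellTiter-Glo read-out after 3-day, 37° C compound exposure (8 points, 5-fold series) of AMG510-resistant NCI-H358 cells plated at 4×10^3 per well.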

[3] = test system: MIA PaCa-2 cells (KRAS G12C mutant); assay: MIA PaCa-2 cell anti-proliferation (CellTiter-Glo); details: Homo sapiens, 72 h; MIA Paca-2 cells, 3 days, Table 7; read-out: MIA PaCa-2 (IC50)
In short: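 Viable-cell luminescence (CellTiter-Glo, ≥30 min at 25 °C) measured after a 3-day, 37 °C exposure to compounds at 9 points, 4-fold spaced, in DMEM containing 10% FBS plus 2.5% horse serum. IC50 derived versus no-inhibitor wells.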

| Structure (SMILES) | IC50 [1] [nM] | IC50 [2] [nM] | IC50 [3] [nM] |
| --- | --- | --- | --- |
| C=C(C(C)=O)C(=O)N1CCN(c2ncnc3ccc(-c4cnc(OC)c(NS(=O)(=O)c5ccc(F)cc5F)c4)cc23)CC1 [Example 168, 2,4-difluoro-N-(2-methoxy-5-(4-(4-(2-methylene-3-oxobutanoyl)piperazin-1-yl)quinazolin-6-yl)pyridin-3-yl)benzenesulfonamide] | 192 | 240 | 48.5 |
| COc1ncc(-c2ccc3ncnc(C4=CCN(C(=O)/C=C/C(C)=O)CC4)c3c2)cc1NS(=O)(=O)c1c(F)cccc1F [Example 201, (E)-2,6-difluoro-N-(2-methoxy-5-(4-(1-(4-oxopent-2-enoyl)-1,2,3,6-tetrahydropyridin-4-yl)quinazolin-6-yl)pyridin-3-yl)benzenesulfonamide] | 11.1 | 5.3 | 31.9 |
| COc1ncc(-c2ccc3ncnc(N4CCN(C5CN(C(=O)/C=C/C(C)=O)C5)CC4)c3c2)cc1NS(=O)(=O)c1ccc(F)cc1F [Example 56, (E)-2,4-difluoro-N-(2-methoxy-5-(4-(4-(1-(4-oxopent-2-enoyl)azetidin-3-yl)piperazin-1-yl)quinazolin-6-yl)pyridin-3-yl)benzenesulfon-amide] | 116 | 116 | – |
| COc1ncc(-c2ccc3ncnc(C4CCN(C(=O)/C=C/C(C)=O)CC4)c3n2)cc1NS(=O)(=O)c1c(F)cc(F)cc1F [Example 231, (E)-2,4,6-trifluoro-N-(2-methoxy-5-(4-(1-(4-oxopent-2-enoyl)piperidin-4-yl)pyrido[3,2-d]pyrimidin-6-yl)pyridin-3-yl)benzenesulfonamide] | 3.6 | 21.6 | 13.2 |
| COC(=O)c1ncc(-c2ccc3ncnc(N4CCN(C(=O)/C=C/C(C)=O)CC4)c3c2)cc1NS(=O)(=O)c1ccc(F)cc1F [Example 181, methyl (E)-3-((2,4-difluoro-phenyl)sulfonamido)-5-(4-(4-(4-oxopent-2-enoyl)piperazin-1-yl)quinazolin-6-yl)picolinate] | 118 | 284 | 56.2 |
| COc1ncc(-c2ccc3ncnc(N4CC5CCC4CN5C(=O)/C=C/C(C)=O)c3c2)cc1NS(=O)(=O)c1ccc(F)cc1F (centres unmarked) [Example 158, (E)-2,4-difluoro-N-(2-methoxy-5-(4-(5-(4-oxopent-2-enoyl)-2,5-diazabicyclo[2.2.2]octan-2-yl)quinazolin-6-yl)pyridin-3-yl)benzenesulfonamide] | 136 | 155 | 140 |
| COc1ncc(-c2ccc3ncnc(N4CCN(C(=O)/C=C/C(C)=O)C[C@@H]4C)c3c2)cc1NS(=O)(=O)c1sc(C)nc1C [Example 173, (S,E)-N-(2-methoxy-5-(4-(2-methyl-4-(4-oxopent-2-enoyl)piperazin-1-yl)quinazolin-6-yl)pyridin-3-yl)-2,4-dimethyl-thiazole-5-sulfonamide] | 62.6 | 54.7 | 9.2 |
| COc1ncc(-c2ccc3ncnc(N4CCN(C(=O)/C=C/C(C)=O)CC4)c3c2)cc1NS(=O)(=O)c1sc(C)nc1C [Example 160, (E)-N-(2-methoxy-5-(4-(4-(4-oxopent-2-enoyl)piperazin-1-yl)quinazolin-6-yl)pyridin-3-yl)-2,4-dimethylthiazole-5-sulfonamide] | 53.8 | 69.5 | 48.4 |
| COc1ncc(-c2ccc3ncnc(N4CCN(C(=O)/C=C/C(C)=O)CC4)c3n2)cc1NS(=O)(=O)c1c(Cl)cncc1Cl [Example 224, (E)-3,5-dichloro-N-(2-methoxy-5-(4-(4-(4-oxopent-2-enoyl)piperazin-1-yl)pyrido[3,2-d]pyrimidin-6-yl)pyridin-3-yl) pyridine-4-sulfonamide] | 144 | 220 | 79.3 |
| COc1ncc(-c2ccc3ncnc(N4CCN(C(=O)/C=C/C(C)=O)CC4)c3c2)cc1NS(=O)(=O)c1ncc(Cl)s1 [Example 165, (E)-5-chloro-N-(2-methoxy-5-(4-(4-(4-oxopent-2-enoyl)piperazin-1-yl)quinazolin-6-yl)pyridin-3-yl)thiazole-2-sulfonamide] | 173 | 171 | 250 |
| COc1ncc(-c2ccc3ncnc(C4CCN(C(=O)/C=C/C(C)=O)CC4)c3c2)cc1NS(=O)(=O)c1sc(C)nc1C [Example 203, (E)-N-(2-methoxy-5-(4-(1-(4-oxopent-2-enoyl)piperidin-4-yl)quinazolin-6-yl)pyridin-3-yl)-2,4-dimethylthiazole-5-sulfonamide] | 16.7 | 5.4 | 51.4 |
| COc1ncc(-c2ccc3ncnc(C4CCN(C(=O)/C=C/C(C)=O)CC4)c3n2)cc1NS(=O)(=O)c1sc(C)nc1C [Example 230, (E)-N-(2-methoxy-5-(4-(1-(4-oxopent-2-enoyl)piperidin-4-yl)pyrido[3,2-d]pyrimidin-6-yl)pyridin-3-yl)-2,4-dimethylthiazol-5-sulfonamide] | 35.3 | 26.7 | 24.2 |
| COc1ncc(-c2ccc3ncnc(N4CCN(C(=O)/C=C/n5ccnn5)CC4)c3c2)cc1NS(=O)(=O)c1ccc(F)cc1F [Example 10, (E)-N-(5-(4-(4-(3-(1H-1,2,3-triazol-1-yl)acryloyl)piperazin-1-yl)quinazolin-6-yl)-2-methoxypyridin-3-yl)-2,4-difluorobenzenesulfonamide] | 226 | 86.6 | 83.2 |
| COc1ncc(-c2ccc3ncnc(C4=CCN(C(=O)/C=C/C(C)=O)CC4)c3c2)cc1NS(=O)(=O)c1c(F)cccc1Cl [Example 202, (E)-2-chloro-6-fluoro-N-(2-methoxy-5-(4-(1-(4-oxopent-2-enoyl)-1,2,3,6-tetrahydropyridin-4-yl)quinazolin-6-yl)pyridin-3-yl)benzene-sulfonamide] | 13 | 9.6 | 11.6 |
| COc1ncc(-c2ccc3ncnc(N4CCC5(CC4)CN(C(=O)/C=C/C(C)=O)C5)c3c2)cc1NS(=O)(=O)c1ccc(F)cc1F [Example 20, (E)-2,4-difluoro-N-(2-methoxy-5-(4-(2-(4-oxopent-2-enoyl)-2,7-diazaspiro[3.5]nonan-7-yl)quinazolin-6-yl)pyridin-3-yl)benzenesulfonamide] | 111 | 48.7 | 64.1 |
| COc1ncc(-c2ccc3ncnc(C4=CCN(C(=O)/C=C/C(C)=O)CC4)c3c2)cc1NS(=O)(=O)c1sc(C)nc1C [Example 199, (E)-N-(2-methoxy-5-(4-(1-(4-oxopent-2-enoyl)-1,2,3,6-tetrahydropyridin-4-yl)quinazolin-6-yl)pyridin-3-yl)-2,4-dimethylthiazole-5-sulfonamide] | 19.1 | 21.7 | 41.1 |
| COc1ncc(-c2ccc3ncnc(N4CCN(C(=O)/C=C/C(C)=O)CC4)c3c2)cc1NS(=O)(=O)c1ccccc1F [Example 91, (E)-2-fluoro-N-(2-methoxy-5-(4-(4-(4-oxopent-2-enoyl)piperazin-1-yl)quinazolin-6-yl)pyridin-3-yl)benzenesulfonamide] | 79.8 | 83.9 | 30.7 |
